The values that follow come from US10604484B2, “Indolone compounds and their use as AMPA receptor modulators” (Janssen Pharmaceutica NV, priority 2015, dated 2020).

The target of one assay is T1, GluA1o-γ8 (Homo sapiens, UniProt P42261+Q8WXS5).
T1 construct: expressed in transfected cells
T1 sequence (P42261+Q8WXS5 fused): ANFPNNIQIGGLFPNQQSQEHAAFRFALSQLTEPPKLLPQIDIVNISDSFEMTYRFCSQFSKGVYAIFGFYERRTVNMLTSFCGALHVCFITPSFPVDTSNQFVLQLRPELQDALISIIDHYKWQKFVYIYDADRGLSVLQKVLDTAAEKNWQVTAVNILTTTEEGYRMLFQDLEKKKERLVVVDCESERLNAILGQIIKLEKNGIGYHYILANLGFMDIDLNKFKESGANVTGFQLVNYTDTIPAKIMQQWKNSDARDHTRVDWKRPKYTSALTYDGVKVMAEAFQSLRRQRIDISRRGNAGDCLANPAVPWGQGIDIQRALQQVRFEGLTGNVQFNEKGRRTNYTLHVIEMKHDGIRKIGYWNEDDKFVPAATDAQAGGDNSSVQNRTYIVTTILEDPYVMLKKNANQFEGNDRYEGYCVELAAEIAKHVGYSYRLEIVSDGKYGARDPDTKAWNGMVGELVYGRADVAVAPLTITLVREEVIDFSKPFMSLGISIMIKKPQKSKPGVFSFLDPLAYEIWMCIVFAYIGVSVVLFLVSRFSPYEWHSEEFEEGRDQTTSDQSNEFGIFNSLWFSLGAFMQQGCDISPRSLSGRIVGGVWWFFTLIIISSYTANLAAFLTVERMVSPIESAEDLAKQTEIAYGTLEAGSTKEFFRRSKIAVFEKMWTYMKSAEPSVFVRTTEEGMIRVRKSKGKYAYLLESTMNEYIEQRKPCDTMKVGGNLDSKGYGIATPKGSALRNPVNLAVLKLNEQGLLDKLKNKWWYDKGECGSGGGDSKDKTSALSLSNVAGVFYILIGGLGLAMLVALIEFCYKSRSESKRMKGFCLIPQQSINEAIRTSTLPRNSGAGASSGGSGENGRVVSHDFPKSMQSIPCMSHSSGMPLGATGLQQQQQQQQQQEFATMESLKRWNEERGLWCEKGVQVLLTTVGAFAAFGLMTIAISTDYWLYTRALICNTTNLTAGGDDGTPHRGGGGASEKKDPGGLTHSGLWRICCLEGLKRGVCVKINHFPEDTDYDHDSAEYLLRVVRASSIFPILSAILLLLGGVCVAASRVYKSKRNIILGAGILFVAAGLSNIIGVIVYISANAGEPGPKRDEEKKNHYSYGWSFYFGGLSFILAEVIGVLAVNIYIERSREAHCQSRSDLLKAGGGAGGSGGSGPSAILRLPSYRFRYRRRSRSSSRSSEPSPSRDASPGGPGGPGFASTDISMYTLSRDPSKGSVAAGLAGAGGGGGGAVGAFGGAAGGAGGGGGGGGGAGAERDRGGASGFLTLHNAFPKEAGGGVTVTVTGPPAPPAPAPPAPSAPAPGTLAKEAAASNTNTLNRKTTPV
The experiment in a line: Calcium flux assay (FLIPR), inhibition of glutamate response of GluA1o-γ8 channel in HEK293 cells. In kind it is cell-based. Particulars: HEK293 cells stably expressing GRIA1o-CACNG8 fusion; 15 μM glutamate; pIC50 = negative log of the IC50 in molar. The text has this: This assay was used to test compounds for their ability to inhibit TARP γ8 dependent AMPA receptor activity. The AMPA receptor is a non-selective cation channel activated by glutamate. Ionotropic glutamate receptors normally desensitize too rapidly to allow detectable calcium influx in a FLIPR assay (Strange et al. (2006). “Functional characterisation of homomeric ionotropic glutamate receptors GluR1-GluR6 in a fluorescence-based high throughput screening assay.” Comb Chem High Throughput Screen 9(2): 147-158). But, this desensitization is incomplete, and a substantial steady-state current remains in the sustained presence of glutamate (Cho et al. (2007). “Two families of TARP isoforms that have distinct effects on the kinetic properties of AMPA receptors and synaptic currents.” Neuron 55(6): 890-904).
An in vitro assay was used to determine the potency of test compounds as inhibitors of the glutamate response of the channel formed by GluA1o-γ8. To ensure a 1:1 stoichiometry of GluA1o and γ8 subunits in the expressed channel, a fusion of the cDNAs for GRIA1o and CACNG8 was used. Following Shi et al (2009) “The stoichiometry of AMPA receptors and TARPs varies by neuronal cell type.” Neuron 62(5): 633-640), the C-terminus of the cDNA for GRIA1o was fused to the N-terminus of the cDNA for γ8. The linker sequence was QQQQQQQQQQEFAT. Channels expressed with this construct appear to have similar properties to channels formed by co-expression of GRIA1o with an excess of CACNG8 (Shi et al. 2009). A clonal cell line in HEK293 cells stably expressing this construct, with a geneticin selection marker, was generated for use in this assay. Cell expressing the GRIA1o-CACNG8 fusion construct were grown in a monolayer in 96- or 384-well microtiter plates. They were washed with assay buffer (135 mM NaCl, 4 mM KCl, 3 mM CaCl2, 1 mM MgCl2, 5 mM glucose, 10 mM HEPES, pH 7.4, 300 mOs) using a Biotek EL405 plate washer. The cells were then loaded with a calcium-sensitive dye (Calcium-5 or Calcium-6, Molecular Devices) and the test compounds at a range of concentrations. Calcium flux following the addition of 15 μM glutamate was monitored using a Molecular Devices FLIPR Tetra.
The fluorescence in each well was normalized to the fluorescence of negative and positive control wells. The negative control wells had no added compounds, and the positive control wells had been incubated with 10 μM CP465022 (a non-subtype-selective AMPA receptor antagonist) (Lazzaro et al. (2002). “Functional characterization of CP-465,022, a selective, noncompetitive AMPA receptor antagonist.” Neuropharmacology 42(2): 143-153). The responses to glutamate as functions of the test compound concentrations were fitted to a four-parameter logistic function. The fitted parameter corresponding to the midpoint was taken to be the potency of inhibition of the compound. The data in Table 4 below illustrates the observed potentcy for the compounds described herein. pIC50 refers to the negative log of the IC50 in molar.
For orientation: Calcium flux is commonly read through the fluorescence of an indicator in the cells.
Turning to `O=C1Cc2cc(-c3c(Cl)cccc3OC(F)(F)F)ccc2N1` [Example 5, 5-[2-Chloro-6-(trifluoromethoxy)phenyl]indolin-2-one], the “GluR1-γ8 pIC50” value came to 7.8.
In the case of `Cc1cccc(C)c1-c1ccc2c(c1)CC(=O)N2` [Example 1, 5-(2,6-Dimethylphenyl)indolin-2-one], the “GluR1-γ8 pIC50” value was 6.4.

Staying with this assay, now noted: HEK293 cells stably expressing GRIA1o-CACNG8 fusion; 15 μM glutamate; pIC50 = negative log of the IC50 in molar; read-out: GluR1-γ8 pIC50 (converted).
With `Cc1cc(-c2c(C)cccc2OC(F)F)cc2c1NC(=O)C2` [Example 129, 5-[2-(Difluoromethoxy)-6-methyl-phenyl]-7-methyl-indolin-2-one], the IC50 was 3.16 nM.
In the case of `N#Cc1ccc(Cl)c(-c2cc(Cl)c3c(c2)CC(=O)N3)c1OC(F)(F)F` [Example 156, 4-Chloro-3-(7-chloro-2-oxo-indolin-5-yl)-2-(trifluoromethoxy)benzonitrile], the IC50 was 0.0794 nM.
As to `CC(C)(C#N)c1cccc(Cl)c1-c1ccc2c(c1)CC(=O)N2` [Example 81, 2-[3-Chloro-2-(2-oxoindolin-5-yl)phenyl]-2-methyl-propanenitrile], the IC50 was 79.4 nM.
As to `Cc1cccc(C#N)c1-c1cc(Cl)c2c(c1)CC(=O)N2` [Example 164, 2-(7-Chloro-2-oxo-indolin-5-yl)-3-methyl-benzonitrile], the IC50 is 1.58 nM.
Turning to `CCc1cc(-c2c(Cl)cccc2OC(F)(F)F)cc2c1NC(=O)C2` [Example 168, 5-[2-Chloro-6-(trifluoromethoxy)phenyl]-7-ethyl-indolin-2-one], the IC50 was 0.0501 nM.
Consider `Cc1ccnc(Cl)c1-c1cc(Cl)c2c(c1)CC(=O)N2` [Example 160, 7-Chloro-5-(2-chloro-4-methyl-3-pyridyl)indolin-2-one], for which the IC50 was 6.31 nM.
As for `CCc1cc(-c2c(C)cccc2Cl)cc2c1NC(=O)C2` [Example 170, 5-(2-Chloro-6-methyl-phenyl)-7-ethyl-indolin-2-one], the IC50 is 0.251 nM.
Turning to `Cc1cccc(OC(F)F)c1-c1cc(F)c2c(c1)CC(=O)N2` [Example 122, 5-[2-(Difluoromethoxy)-6-methyl-phenyl]-7-fluoro-indolin-2-one], the IC50 is 15800 nM.
As to `O=C1Cc2cc(-c3c(Cl)ccnc3Cl)cc(Cl)c2N1` [Example 163, 7-Chloro-5-(2,4-dichloro-3-pyridyl)indolin-2-one], the IC50 is 1.58 nM.
With `Cc1ccnc(C)c1-c1cc(Cl)c2c(c1)CC(=O)N2` [Example 161, 7-Chloro-5-(2,4-dimethyl-3-pyridyl)indolin-2-one], the IC50 is 158 nM.
For `O=C1Cc2cc(-c3c(Cl)cccc3OC(F)(F)F)cc(Cl)c2N1` [Example 153, 7-Chloro-5-[2-chloro-6-(trifluoromethoxy)phenyl]indolin-2-one], the IC50 was 0.0794 nM.
On the same count and under the same terms, the same measure for `CCc1cc(-c2c(C)cccc2C#N)cc2c1NC(=O)C2` [Example 169, 2-(7-Ethyl-2-oxo-indolin-5-yl)-3-methyl-benzonitrile]: 3.16 nM; for `Cc1cc(-c2c(C)cccc2F)cc2c1NC(=O)C2` [Example 136, 5-(2-Fluoro-6-methyl-phenyl)-7-methyl-indolin-2-one]: 3.16 nM; for `N#CCc1cccc(Cl)c1-c1ccc2c(c1)CC(=O)N2` [Example 6, 2-[3-Chloro-2-(2-oxoindolin-5-yl)phenyl]acetonitrile]: 31.6 nM.
On to `Cc1cc(-c2c(C)cccc2C(F)(F)F)cc2c1NC(=O)C2` [Example 137, 7-Methyl-5-[2-methyl-6-(trifluoromethyl)phenyl]indolin-2-one], for which the IC50 was 1.26 nM.
Same read-out and setting: the same measure for `Cc1cc(-c2c(C)cccc2C)cc2c1NC(=O)C2` [Example 142, 5-(2,6-Dimethylphenyl)-7-methyl-indolin-2-one]: 2.51 nM.
Same read-out and setting: in the case of `CC(C)(C#N)c1cccc(Cl)c1-c1cc(Cl)c2c(c1)CC(=O)N2` [Example 155, 2-[3-Chloro-2-(7-chloro-2-oxo-indolin-5-yl)phenyl]-2-methyl-propanenitrile] it was 0.158 nM; in that of `Cc1cc(-c2c(Cl)cccc2C#N)cc2c1NC(=O)C2` [Example 143, 3-Chloro-2-(7-methyl-2-oxoindolin-5-yl)benzonitrile], 5.01 nM.
Take `O=C1Cc2cc(-c3c(Cl)cccc3OC(F)F)cc(F)c2N1` [Example 118, 5-(2-Chloro-6-(difluoromethoxy)phenyl)-7-fluoroindolin-2-one]: the IC50 is 15.8 nM.
As to `COc1cc(-c2c(Cl)cccc2OC(F)(F)F)cc2c1NC(=O)C2` [Example 178, 5-[2-Chloro-6-(trifluoromethoxy)phenyl]-7-methoxy-indolin-2-one], the IC50 is 0.794 nM.
With `COc1cccc(F)c1-c1cc(C)c2c(c1)CC(=O)N2` [Example 139, 5-(2-Fluoro-6-methoxy-phenyl)-7-methyl-indolin-2-one], the IC50 was 126 nM.
With `Cc1cc(-c2c(C)ccnc2Cl)cc2c1NC(=O)C2` [Example 149, 5-(2-Chloro-4-methyl-3-pyridyl)-7-methyl-indolin-2-one], the IC50 is 15.8 nM.
On the same count and under the same terms, the same measure for `CC(C)(C#N)c1cccc(Cl)c1-c1cc(F)c2c(c1)CC(=O)N2` [Example 119, 2-(3-Chloro-2-(7-fluoro-2-oxoindolin-5-yl)phenyl)-2-methylpropanenitrile]: 25.1 nM; for `O=C1Cc2cc(-c3c(Cl)cccc3OC(F)(F)F)cc(C(F)(F)F)c2N1` [Example 176, 5-[2-Chloro-6-(trifluoromethoxy)phenyl]-7-(trifluoromethyl)indolin-2-one]: 0.501 nM; for `Cc1cc(-c2c(C)cncc2C)cc2c1NC(=O)C2` [Example 148, 5-(3,5-Dimethyl-4-pyridyl)-7-methyl-indolin-2-one]: 10 nM.
Turning to `O=C1Cc2cc(-c3c(Cl)cncc3OC(F)F)cc(Cl)c2N1` [Example 158, 7-Chloro-5-[3-chloro-5-(difluoromethoxy)-4-pyridyl]indolin-2-one], the IC50 was 7.94 nM.
On to `COc1nccc(C)c1-c1cc(C)c2c(c1)CC(=O)N2` [Example 150, 5-(2-Methoxy-4-methyl-3-pyridyl)-7-methyl-indolin-2-one], for which the IC50 was 31.6 nM.
Turning to `O=C1Cc2cc(-c3c(Cl)cccc3Br)ccc2N1` [Example 2, 5-(2-Bromo-6-chlorophenyl)indolin-2-one], the IC50 was 25.1 nM.
On to `COc1cccc(OC(F)F)c1-c1cc(F)c2c(c1)CC(=O)N2` [Example 123, 5-[2-(Difluoromethoxy)-6-methoxy-phenyl]-7-fluoro-indolin-2-one], for which the IC50 was greater than 10000 nM.
Same read-out and setting: the same measure for `CCc1cc(-c2c(C)cccc2C(F)(F)F)cc2c1NC(=O)C2` [Example 172, 7-Ethyl-5-[2-methyl-6-(trifluoromethyl)phenyl]indolin-2-one]: 0.2 nM.
